# Measurements as given in US20250186379A1, “METHODS AND AGENTS FOR DECREASING INSULIN RESISTANCE” (Whitehead Institute for Biomedical Research, priority 2021, published 2025).
# “Also recorded” adds a separate entry of the source.
# Tested on: IR condensates
# Assay: tc-PALM of IR cluster/condensate dynamics in HepG2 cells expressing IR-Dendra2
# Assay type: cell-based, human
# Description: Widefield Live-cell super-resolution imaging was performed in a photo-activation localization microscopy (PALM) approach using a Nikon Eclipse Ti microscope with a 100× oil immersion objective. The 405 nm and 561 nm laser beams were combined in an external platform with customized power densities to image Dendra2-tagged molecules as previously reported (56). Cells were maintained at 37° C. in a temperature-controlled platform during imaging, and the CO2 level was maintained at 5% by Leibovitz's L-15 Medium with no phenol red (ThermoFisher #21083027). In each imaging cycle, a 2400-frame video stream including a (256 pixel)2 region of interest (ROI) was recorded in 20 Hz acquisition rate with the EM-gain setting as 1000 on an Andor iXon Ultra 897 EMCCD. Each pixel conjugates with a (160 nm)2 area on the sample side. After PALM imaging, the Hoechst-stained nuclei of the same ROI were imaged with stronger 405 nm excitation through DAPI filter.
# Detection localization. For each frame of a raw image, Gaussian particles were identified by pixelwise test of hypotheses, whose peak positions were individually fitted at subpixel resolution by maximum-likelihood regression with Gauss-Newton method (91). An additional deflation loop was performed to avoid missing dimmer particles when they were overshadowed by neighboring brighter ones. This multi-particle detection localization procedure has been integrated in a published, open-source MATLAB software called MTT (91).
# Spatial clustering. DBSCAN and “manual selection” hybridized approach was applied to group spatially clustered detections via the qSR software (92). Firstly, DBSCAN was performed to generalize a proposal map of spatially clustered detections. Given that IR condensates can be tiny and transient, a “loose” parameter setting was used when performing the DBSCAN (length-scale=120 nm, N_min=4). This parameter combination was determined by comparing the rendered super-resolved reconstructions with the color-coded cluster maps until the clustering results visually make sense for most ROIs. Secondly, individual clusters were manually selected based on the clustering proposal map from last step. Some custom MATLAB code was used to reconstruct the IR distribution of each ROI superposed with the corresponding nuclei image, which was further cross-compared with the corresponding cluster map to determine which region each cluster belongs to (i.e., plasma-membrane, cytoplasm, or nucleus).
# Temporal clustering. For each spatial cluster, time-correlated PALM (tc-PALM) analysis was performed along the time axis to extract the truly colocalized, time-correlated multimolecule bursting events (11, 13-14). The lifetime of a burst is simply defined as the timespan from the first to the last detections. More details about the quantitative validations and statistics of tc-PALM analysis can be found in NOTES and FIG. 11.
# Widefield, live-cell, super-resolution imaging was performed in a photo-activation localization microscopy (PALM) approach using a Nikon Eclipse Ti microscope with a 100× oil immersion objective. The 405 nm and 561 nm laser beams were combined in an external platform with customized power densities to image Dendra2-tagged molecules as previously reported^24. Cells were cultured on imaging dishes (MatTek, P35G-1.5-20-C) and then imaged while maintaining both the temperature at 37° C. with a temperature-controlled platform and the level of CO2 at 5% with Leibovitz's L-15 Medium with no phenol red (Thermo Fisher, 21083027). During each imaging cycle, a 2400-frame video stream including a (256 pixel)^2 region of interest (ROI) was recorded in 20 Hz acquisition rate with the EM-gain setting as 1000 on an Andor iXon Ultra 897 EMCCD. Each pixel conjugates with a (160 nm)^2 area on the sample side. After PALM imaging, the Hoechst-stained nuclei of the same ROI were imaged using a stronger 405 nm excitation through DAPI filter. […] Following a 5-minute wait, the cells were imaged for 15-20 minutes.
# [1] = insulin resistant (3 nM insulin) versus sensitive (0.1 nM) cells
# [2] = insulin sensitive cells, 3 nM insulin 5 min
compound,measurement,setting,value
"insulin: insulin (Sigma Aldrich, I9278-5ML) used for acute stimulation and chronic physiological or pathological exposure",average number of IR-Dendra2 detections per cluster,"entire cells, insulin-stimulated (3 nM, 5 min), 22 (range 4-609) in unstimulated cells",27 (range 4-539)
same,"increase of percentage of long-lived IR clusters, cytoplasm",[1],1.4 fold
same,"increase of percentage of long-lived IR clusters, nucleus",[1],3.6 fold
same,number of IR clusters in the cytoplasm and nucleus,[2],produced an increase; also recorded: resulted in an increase
same,number of IR molecules / IR detections in clusters,[2],an increase in the number of IR molecules in these clusters; also recorded: an increase in the number of IR detections in clusters
same,"average number of IR molecules per cluster, nucleus","insulin stimulated cells (3 nM, 5 min), 9 (2-46) in unstimulated cells",14 (2-283)
same,"average number of IR molecules per cluster, cytoplasm","insulin stimulated cells (3 nM, 5 min), 14 (2-264) in unstimulated cells",19 (2-295)
same,"percentage of long-lived IR condensates in the plasma membrane, cytoplasm and nucleus",insulin-resistant (3 nM insulin) versus sensitive cells (FIG. 18B),also increased
same,"average lifetime of short-lived IR clusters, nucleus","pathologic insulin (3 nM), insulin resistant cells, 5.9 s in sensitive cells (FIG. 4B)",16 s
same,"average lifetime of short-lived IR clusters, cytoplasm","pathologic insulin (3 nM), insulin resistant cells, 9.8 s in sensitive cells (FIG. 4B)",13.2 s
same,"average lifetime of short-lived IR condensates, plasma membrane","pathologic insulin (3 nM), insulin-resistant cells, 6.8 s in sensitive cells (FIG. 18B)",11.8 s
same,"average lifetime of short-lived IR condensates, nucleus","pathologic insulin (3 nM), insulin-resistant cells, 7.0 s in sensitive cells (FIG. 18B)",12.9 s
same,"average lifetime of short-lived IR condensates, cytoplasm","pathologic insulin (3 nM), insulin-resistant cells, 10.0 s in sensitive cells (FIG. 18B)",15.8 s
"CN(C)C(=N)N=C(N)N [metformin, reference compound]","IR condensate lifetimes in the plasma membrane, cytoplasm and nucleus","insulin-resistant cells, 12.5 μM metformin, after insulin washout (FIG. 18B)","rescued condensate lifetimes in the plasma membrane, cytoplasm and nucleus to times that were similar to those in insulin-sensitive cells"
same,IR condensate lifetime in insulin-sensitive cells,"insulin-sensitive HepG2 IR-Dendra2 cells, 12.5 μM metformin for 1 day (FIG. 37)",did not decrease IR condensate lifetime; also recorded: does not decrease IR condensate lifetime
same,IR cluster lifetimes in the cytoplasm and nucleus,"metformin-treated insulin resistant cells (FIG. 5C), no acute insulin stimulation",reduced cluster lifetimes in the cytoplasm and nucleus to times that were similar to those in insulin sensitive cells
same,IR cluster lifetimes in the plasma membrane,"metformin-treated insulin resistant cells, 12.5 M metformin as printed (FIG. 5C), no acute insulin stimulation",little effect
same,frequency of nuclear IR clusters with 0-25 s lifetimes,metformin-treated resistant cells vs resistant cells (FIG. 5C),increased
same,frequency of plasma membrane and nuclear IR condensates with 0-13 s lifetimes,metformin-treated resistant cells vs resistant cells (FIG. 18B),increased
same,IR clusters in the cytoplasm with a lifetime of 0-25 s,"metformin-treated resistant cells, ~40% in insulin resistant cells (FIG. 5C)",~60%
same,IR condensates in the cytoplasm with a lifetime of 0-13 s,"metformin-treated resistant cells, ~40% in insulin-resistant cells (FIG. 18B)",~60%
TNFα,IR dynamics in condensates,"HepG2 IR-Dendra2 cells, pathological TNFα or high nutrients (FIGS. 36A-36B)",decreased IR dynamics in condensates
